Assay results taken from patent publication US20230219898A1, “COMPOUNDS AND METHODS FOR BLOCKING APOPTOSIS AND INDUCING AUTOPHAGY” (President and Fellows of Harvard College, priority 2020, published 2023).

Key:
[1] = molecular target: T1, TRADD-N (Homo sapiens, UniProt Q15628); experiment: BIAcore SPR binding to TRADD-N; conditions: 25C, steady-state affinity
T1 construct: expression constructs encoding Flag-TRADD-N(1-179) and HA-TRADD-C(180-312); His (N); made in house
T1 sequence (Q15628 1-179): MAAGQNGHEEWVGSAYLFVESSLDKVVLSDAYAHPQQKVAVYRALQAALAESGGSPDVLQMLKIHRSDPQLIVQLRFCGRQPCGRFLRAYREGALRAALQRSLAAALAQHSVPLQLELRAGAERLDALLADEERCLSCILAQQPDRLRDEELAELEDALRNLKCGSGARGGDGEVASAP
Protocol: A series of concentrations of ICCB-19 (ranging from 0.3125 to 10 μM) was used to measure the binding kinetics, with TRADD-N immobilized on the CM5 chip.
The binding affinity between ICCB-19/Apt-1 and TRADD-N was analyzed at 25C on a BIAcore T200 machine with CM5 chips (GE Healthcare). PBS-P buffer (GE Healthcare) was used for all measurements. For surface plasmon resonance (SPR) measurements, Flag-tagged TRADD-N protein was purified from HEK293T cells by anti-Flag affinity gel and eluted by 3×Flag peptide. The protein was further purified by size exclusion chromatograph on a Superdex 75 column (GE Healthcare) in a buffer containing 20 mM imidazole (pH 6.6), 200 mM NaCl, 20 mM DTT. The protein was dialyzed into PBS and diluted to a final concentration of 40 μg/ml in NaOAc buffer (pH 4.5) before immobilization on CM5 chip. ˜5000 response units of protein were immobilized on the chip with a running buffer composed of PBS-P. Reference was used to normalize the response unit (RU) values of protein. A series of compound concentrations ranging from 0.3125 to 10 μM was tested at […] flow rate. The contact time is 100 s and dissociation time is 120 s. When the data collection was finished in each cycle, the sensor surface was regenerated with PBS-P buffer. DMSO solvent correction was performed following the BIAcore T200 Guide.

[2] = molecular target: T2, GST-TRADD-C (Homo sapiens, UniProt Q15628); experiment: Thermal shift assay with GST-TRADD-C; assay type: binding; conditions: GST-TRADD-C 50 μM, compound 250 μM
T2 construct: cDNA encoding GST-tagged hTRADD (Full length or aa180-312); made in house; host or cells: mammalian cells (pEBG plasmid)
T2 sequence (Q15628 180-312): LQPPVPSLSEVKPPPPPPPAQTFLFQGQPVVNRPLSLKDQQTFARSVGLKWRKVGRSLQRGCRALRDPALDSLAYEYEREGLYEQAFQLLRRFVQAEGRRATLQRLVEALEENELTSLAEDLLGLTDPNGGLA
Protocol: To determine stability, purified proteins were made to a final concentration of […]. SYPRO Orange dye was added to the protein to make a final concentration of 2×. Compounds were added in the mix with a final concentration of 250 μM or as indicated and incubated at 4C for 1 h. The experiments were performed in 384-well plates specific for real-time PCR instrument with a total volume of 20 μl/well. The assay plate was covered with a sheet of optically clear adhesive to seal each well. The assay plate was centrifuged at 800×g for 2 min at 25C to collect solutions in the bottom of the well and remove bubbles. The assay plate was placed into the Applied Biosystems QuantStudio 6 Real-Time PCR System. The reaction was run from 25C, ramping up in increments of 0.05° C./s to a final temperature of 95C with fluorescence detection throughout the experiment to generate a dataset. Melting temperature of the protein (Tm) was determined by performing non-linear fitting of the dataset to a Boltzmann Sigmoidal curve in GraphPad Prism with the following equation: Y=Bottom+(Top-Bottom)/[1+exp(Tm-X/Slope)], where Y=fluorescence emission in arbitrary units; X=temperature; Bottom=baseline fluorescence at low temperature; Top=maximal fluorescence at top of the dataset; Slope=describes the steepness of the curve, with larger values denoting shallower curves.

[3] = molecular target: T3, GST-TRADD (Homo sapiens, UniProt Q15628); experiment: Thermal shift assay with GST-TRADD; assay type: binding; conditions: GST-TRADD 50 μM, compound 250 μM
T3 construct: cDNA encoding GST-tagged hTRADD (Full length or aa180-312); made in house; host or cells: HEK293T (pEBG plasmid)
T3 sequence (Q15628 whole entry, the tested form may be a part): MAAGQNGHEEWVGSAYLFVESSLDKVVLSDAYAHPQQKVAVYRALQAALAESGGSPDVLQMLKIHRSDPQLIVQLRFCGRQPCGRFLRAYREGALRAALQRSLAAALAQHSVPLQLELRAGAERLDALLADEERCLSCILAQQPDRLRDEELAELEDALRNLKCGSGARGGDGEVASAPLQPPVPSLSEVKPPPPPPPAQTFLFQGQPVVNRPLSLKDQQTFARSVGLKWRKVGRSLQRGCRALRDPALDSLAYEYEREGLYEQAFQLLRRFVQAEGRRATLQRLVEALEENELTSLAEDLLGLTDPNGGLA
Source text: Thermal unfolding of GST-TRADD is monitored using SYPRO Orange. Data were collected in the presence of ICCB-19 and Apt-1, leading to a rightward shift in the unfolding transition. The apparent melting temperature (Tm) is the peak in the derivative of the unfolding curve (dF/dT), which is used as an indicator of thermal stability.
Full-length cDNAs for mouse/human TRADD were PCR-amplified from the plasmid library and cloned into pcDNA3.1 using Phanta Max Super-Fidelity DNA Polymerase (Vazyme Biotech Co., Ltd) with appropriate tags. Mutant hTRADD were generated using MutExpress II mutagenesis kit (Vazyme Biotech Co., Ltd). […]
To determine stability, purified proteins were made to a final concentration of 1 μg/l. […] The reaction was run from 25C, ramping up in increments of 0.05° C./s to a final temperature of 95C with fluorescence detection throughout the experiment to generate a dataset. Melting temperature of the protein (Tm) was determined by performing non-linear fitting of the dataset to a Boltzmann Sigmoidal curve in GraphPad Prism with the following equation: Y=Bottom+(Top-Bottom)/[1+exp(Tm-X/Slope)], where Y=fluorescence emission in arbitrary units; X=temperature; Bottom=baseline fluorescence at low temperature; Top=maximal fluorescence at top of the dataset; Slope=describes the steepness of the curve, with larger values denoting shallower curves.

[4] = test system: cleaved caspase-3 in Jurkat cells; experiment: Cleaved caspase-3 immunoblot in Velcade-treated cells; assay type: cell-based, human; conditions: FIG. 9a, 9b; Jurkat and SH-SY5Y cells, 10 μM, 12 h and 24 h
Protocol: The levels of cleaved caspase-3 were determined by immunoblotting.
Specifically, wild-type MEF cells were pretreated for 1 h with 10 uM of the specified compounds, followed by 2 h treatment with 0.5 uM 5z-7-oxozeaenol and 1 ng/mL TNFα. Cell lysates were prepared and immunoblotted for cleaved-caspase 3 (CC3). Wild-type Jurkat cells were also pretreated for 1 h with 10 uM of the specified compounds, followed by 12 h treatment with 50 nM Velcade. Cell lysates were prepared and immunoblotted for cleaved-caspase 3 (CC3).

| SMILES | Kd [1] [nM] | binding to GST-TRADD-C [2] | increase of Tm of GST-TRADD [3] [°C] | cleavage of caspase-3 downstream of Velcade-induced proteasomal stress [4] |
| --- | --- | --- | --- | --- |
| O=C(CSC1=NCCN1)NC1CCCCCC1 [ICCB-19] | 2300 | does not bind | 3.2 | blocked |
| CN1CCN=C1SC(C(=O)NC1CCCCCC1)c1ccccc1 (centres unmarked) [Compound 30] | 2170 | does not bind | 3.7 | blocked |
